# Measurements: patent US10323027B2, “2,3-dihydro-4H-1,3-benzoxazin-4-one derivatives as modulators of cholinergic muscarinic M1 receptor” (Takeda Pharmaceutical Company Limited, priority 2015, dated 2019)
# Target: T1, human M1 receptor (hCHRM1) (Homo sapiens, UniProt P11229)
# T1 construct: expressed in transfected cells
# T1 sequence (P11229 1-460): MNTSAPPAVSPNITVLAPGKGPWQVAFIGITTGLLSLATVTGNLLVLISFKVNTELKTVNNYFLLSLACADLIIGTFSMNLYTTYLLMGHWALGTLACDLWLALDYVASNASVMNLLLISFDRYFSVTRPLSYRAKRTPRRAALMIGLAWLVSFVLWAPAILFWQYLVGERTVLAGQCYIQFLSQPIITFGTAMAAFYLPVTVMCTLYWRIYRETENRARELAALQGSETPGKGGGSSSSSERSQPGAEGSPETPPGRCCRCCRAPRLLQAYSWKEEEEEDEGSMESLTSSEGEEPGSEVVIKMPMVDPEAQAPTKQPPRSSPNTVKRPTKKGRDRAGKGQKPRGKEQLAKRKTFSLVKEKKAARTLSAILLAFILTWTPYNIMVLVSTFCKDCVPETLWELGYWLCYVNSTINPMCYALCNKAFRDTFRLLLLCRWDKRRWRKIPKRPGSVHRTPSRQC
# Assay: Measurement of M1 receptor positive allosteric modulator (M1PAM) activity, Ca2+ fluorescence by FLIPRtetra (Experimental Example 1)
# Type: cell-based
# Conditions: for activity (%) at 10 μM: 10 μM test compound, 100% = acetylcholine 1 μM, 0% = DMSO; for EC50: inflection point of concentration-dependent curve, in presence of acetylcholine at EC20 (0.8-1.0 nM), CHO-K1 cells expressing hCHRM1, read-out: IP value
# Procedure: Measurement of M1 Receptor Positive Allosteric Modulator (M1PAM) Activity
# The activity of a test compound in the presence of acetylcholine at EC20 concentration (final concentration 0.8-1.0 nM), which affords an action corresponding to about 20% of the maximum activity, was measured as PAM activity. The method is as follows. CHO-K1 cells stably expressing a human M1 receptor (hCHRM1) were plated on a 384-well black clear bottom plate (BD Falcon) at 5,000 cells/well, and cultured in an incubator at 37° C., 5% CO2 for 1 day. The medium in the cell plate was removed, and a dye solution (prepared by adding Recording medium (DOJINDO LABORATORIES) to a final concentration of 1×concentration, Fluo-4 AM (DOJINDO LABORATORIES) to a final concentration of 2.5 μg/mL, Pluronic F127 (DOJINDO LABORATORIES) to a final concentration of 0.08%, and probenecid (DOJINDO LABORATORIES) to a final concentration of 1.25 mM to assay buffer (HBSS (Invitrogen), 20 mM HEPES (Invitrogen), 0.1% BSA (Wako Pure Chemical Industries, Ltd.))) was added at 30 μL/well. The cells were left standing in the incubator at 37° C., 5% CO2 for 30 min, and further left standing at room temperature for 30 min. A test compound prepared by diluting with assay buffer containing 3.2-4.0 nM acetylcholine was added at 10 μL/well, and the fluorescence was measured by FLIPRtetra (Molecular Devices) for 1 min every 1 second. With the definition that the amount of change in the fluorescence on addition of acetylcholine (final concentration 1 μM) is 100% and that on addition of DMSO instead of a test compound is 0%, the activity (%) of the test compound was calculated, and the inflection point in the concentration-dependent curve of the test compound was calculated as IP values.
SMILES,activity (%) at 10 μM [%],EC50 [nM]
"Cc1c(Cc2ccc(Cl)nc2)cc2c(c1F)OCN([C@H]1CCCC[C@@H]1O)C2=O [Example 54, 6-((6-chloropyridin-3-yl)methyl)-8-fluoro-3-((1S,2S)-2-hydroxycyclohexyl)-7-methyl-2,3-dihydro-4H-1,3-benzoxazin-4-one]",116,11
"O=C1c2cc(Cc3ccc(Cl)nc3)c3ccccc3c2OCN1[C@H]1CCCC[C@@H]1O (relative stereo) [Example 56, 6-((6-chloropyridin-3-yl)methyl)-3-(trans-2-hydroxycyclohexyl)-2,3-dihydro-4H-naphtho[2,1-e][1,3]oxazin-4-one]",109,16
"Cc1c(Cc2ccc(Cl)nc2)cc2c(c1F)OCN([C@H]1COCC[C@@H]1O)C2=O [Example 19, 1,5-anhydro-2-(6-((6-chloropyridin-3-yl)methyl)-8-fluoro-7-methyl-4-oxo-2H-1,3-benzoxazin-3(4H)-yl)-2,4-dideoxy-L-threo-pentitol]",105,45
"Cc1c(Cc2ccc(-n3cccn3)cc2)cc2c(c1F)OCN([C@H]1CCC[C@@H]1O)C2=O (relative stereo) [Example 30, 8-fluoro-3-(trans-2-hydroxycyclopentyl)-7-methyl-6-(4-(1H-pyrazol-1-yl)benzyl)-2,3-dihydro-4H-1,3-benzoxazin-4-one]",102,8.6
"Cc1ccc(Cc2cc3c(c(Cl)c2C)OCN([C@H]2CCC[C@@H]2O)C3=O)cn1 [Example 25, 8-chloro-3-((1S,2S)-2-hydroxycyclopentyl)-7-methyl-6-((6-methylpyridin-3-yl)methyl)-2,3-dihydro-4H-1,3-benzoxazin-4-one]",101,4.2
"Cc1cc2c(cc1Cc1ccc(-n3cccn3)nc1)C(=O)N([C@H]1CCCC[C@@H]1O)CO2 (relative stereo) [Example 36, 3-(trans-2-hydroxycyclohexyl)-7-methyl-6-((6-(1H-pyrazol-1-yl)pyridin-3-yl)methyl)-2,3-dihydro-4H-1,3-benzoxazin-4-one]",108,12
"Cn1cc(-c2ccc(Cc3ccc4c(c3)C(=O)N([C@H]3CCCC[C@@H]3O)CO4)cn2)cn1 (relative stereo) [Example 63, 3-(trans-2-hydroxycyclohexyl)-6-((6-(1-methyl-1H-pyrazol-4-yl)pyridin-3-yl)methyl)-2,3-dihydro-4H-1,3-benzoxazin-4-one]",99,32
"Cn1cc(-c2ccc(Cc3cc4c(c5ccccc35)OCNC4=O)cn2)cn1 [Example 47, 6-((6-(1-methyl-1H-pyrazol-4-yl)pyridin-3-yl)methyl)-2,3-dihydro-4H-naphtho[2,1-e][1,3]oxazin-4-one]",110,5.3
"COc1c(Cc2ccc(-c3cnn(C)c3)nc2)cc2c(c1F)OCN(CC1CCCO1)C2=O (centres unmarked) [Example 74, 8-fluoro-7-methoxy-6-((6-(1-methyl-1H-pyrazol-4-yl)pyridin-3-yl)methyl)-3-(tetrahydrofuran-2-ylmethyl)-2,3-dihydro-4H-1,3-benzoxazin-4-one]",104,59

# Further compounds by falling EC50, results first:
activity (%) at 10 μM [%],EC50 [nM],SMILES
115,230,"Cn1cc(-c2ccc(Cc3ccc4c(c3)C(=O)N(c3ccccc3F)CO4)cn2)cn1 [Example 88, 3-(2-fluorophenyl)-6-((6-(1-methyl-1H-pyrazol-4-yl)pyridin-3-yl)methyl)-2,3-dihydro-4H-1,3-benzoxazin-4-one]"
93,160,"Cc1c(Cc2ccc(Cl)nc2)cc2c(c1Cl)OCN(CC1CCCO1)C2=O (centres unmarked) [Example 87, 8-chloro-6-((6-chloropyridin-3-yl)methyl)-7-methyl-3-(tetrahydrofuran-2-ylmethyl)-2,3-dihydro-4H-1,3-benzoxazin-4-one]"
110,86,"Cc1ccc(Cc2cc3c(c(F)c2Cl)OCN([C@H]2CCC[C@@H]2O)C3=O)cn1 [Example 81, 7-chloro-8-fluoro-3-((1S,2S)-2-hydroxycyclopentyl)-6-((6-methylpyridin-3-yl)methyl)-2,3-dihydro-4H-1,3-benzoxazin-4-one]"
104,75,"Cc1c(Cc2ccc(-n3cccn3)cc2)cc2c(c1F)OCN(CC1CCCO1)C2=O (centres unmarked) [Example 78, 8-fluoro-7-methyl-6-(4-(1H-pyrazol-1-yl)benzyl)-3-(tetrahydrofuran-2-ylmethyl)-2,3-dihydro-4H-1,3-benzoxazin-4-one]"
100,57,"O=C1c2cc(CN3CCCC(F)(F)C3)c3ccccc3c2OCN1[C@H]1CCC[C@@H]1O [Example 72, 6-((3,3-difluoropiperidin-yl)methyl)-3-((1S,2S)-2-hydroxycyclopentyl)-2,3-dihydro-4H-naphtho[2,1-e][1,3]oxazin-4-one]"
99,21,"COc1ccc(Cc2cc3c(c(C)c2C)OCN([C@H]2COCC[C@@H]2O)C3=O)cc1 (relative stereo) [Example 59, 1,5-anhydro-2,4-dideoxy-2-(6-(4-methoxybenzyl)-7,8-dimethyl-4-oxo-2H-1,3-benzoxazin-3(4H)-yl)-threo-pentitol]"
106,15,"Cc1cc2c(cc1Cc1ccc(-n3cccn3)nc1)C(=O)N([C@H]1CCC[C@@H]1O)CO2 [Example 14, 3-((1S,2S)-2-hydroxycyclopentyl)-7-methyl-6-((6-(1H-pyrazol-1-yl)pyridin-3-yl)methyl)-2,3-dihydro-4H-1,3-benzoxazin-4-one]"
89,15,"Cc1c(Cc2ccc(C#N)cc2)cc2c(c1F)OCN([C@H]1CCC[C@@H]1O)C2=O [Example 12, 4-((8-fluoro-3-((1S,2S)-2-hydroxycyclopentyl)-7-methyl-4-oxo-3,4-dihydro-2H-1,3-benzoxazin-6-yl)methyl)benzonitrile]"
96,11,"Cc1c(Cc2ccc(-n3cccn3)cc2)cc2c(c1C)OCN([C@H]1CCCC[C@@H]1O)C2=O (relative stereo) [Example 53, 3-(trans-2-hydroxycyclohexyl)-7,8-dimethyl-6-(4-(1H-pyrazol-1-yl)benzyl)-2,3-dihydro-4H-1,3-benzoxazin-4-one]"
101,9.7,"Cc1c(Cc2ccc(-n3cccn3)nc2)cc2c(c1Cl)OCN([C@H]1CCC[C@@H]1O)C2=O (relative stereo) [Example 51, 8-chloro-3-(trans-2-hydroxycyclopentyl)-7-methyl-6-((6-(1H-pyrazol-1-yl)pyridin-3-yl)methyl)-2,3-dihydro-4H-1,3-benzoxazin-4-one]"
106,7.4,"COc1c(Cc2ccc(-n3ccnc3)nc2)cc2c(c1F)OCN([C@H]1CCC[C@@H]1O)C2=O (relative stereo) [Example 48, 8-fluoro-3-(trans-2-hydroxycyclopentyl)-6-((6-(1H-imidazol-1-yl)pyridin-3-yl)methyl)-7-methoxy-2,3-dihydro-4H-1,3-benzoxazin-4-one]"
105,6,"Cc1ccc(Cc2cc3c(c(F)c2C)OCN([C@H]2CCCC[C@@H]2O)C3=O)cn1 [Example 27, 8-fluoro-3-((1S,2S)-2-hydroxycyclohexyl)-7-methyl-6-((6-methylpyridin-3-yl)methyl)-2,3-dihydro-4H-1,3-benzoxazin-4-one]"
92,4.8,"Cc1c(Cc2ccc(-c3cnn(C)c3)nc2)cc2c(c1Cl)OCN(CC1CCCO1)C2=O (centres unmarked) [Example 45, 8-chloro-7-methyl-6-((6-(1-methyl-1H-pyrazol-4-yl)pyridin-3-yl)methyl)-3-(tetrahydrofuran-2-ylmethyl)-2,3-dihydro-4H-1,3-benzoxazin-4-one]"
